Laboratory results: patent US20260138976A1 (Hoffmann-La Roche Inc., priority 2022, published 2026)

System: primary human T-cells
Experiment: Proliferation assay (5 days, CellTiter-Glo, CD3-stimulated T-cells)
Format: cell-based
Conditions: for Emax proliferation (% activation): CD3 condition, normalised to DMSO (neutral) and 20 μM reference compound A1 = 100%; for EC50: Homo sapiens, T-cell, 120 h, CD3-stimulated primary human T-cells, 5 days, CellTiter-Glo, fitted sigmoidal curve, read-out: Tcell Proliferation CD3 EC50
Method in brief: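 Proliferation read-out: ATP luminescence (CellTiter-Glo 2.0) at day 5 in expanded primary human T-cells on CD3 antibody-coated plates, with PBS-only plates as a counter screen. Compounds in 5–6 pt series (factor 3.333, top 20 or 10 μM final). Values are normalized to DMSO (neutral) and 20 μM reference A1 (100%), from sigmoidal fits.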

**Q.** Which “Emax proliferation (% activation)” value does the source give for N[C@H]1CS(=O)(=O)c2ccc(-c3noc(-c4cccnc4Cl)n3)cc2N(Cc2ccc(-c3noc(C4CC4)n3)cc2)C1=O [Example 85, (3R)-3-amino-7-[5-(2-chloro-3-pyridyl)-1,2,4-oxadiazol-3-yl]-5-[[4-(5-cyclopropyl-1,2,4-oxadiazol-3-yl)phenyl]methyl]-1,1-dioxo-2,3-dihydro-1λ^6,5-benzothiazepin-4-one] here?
**A.** Its value is 62 % activation.

**Q.** What about the EC50 of the same compound?
**A.** Its EC50 is 8170 nM.

**Q.** Cc1nc(F)ccc1-c1nc(-c2ccc3c(c2)N(Cc2ccc(-c4noc(C5CC5)n4)cc2)C(=O)[C@@H](N)CS3(=O)=O)no1 [Example 86, (3R)-3-amino-5-[[4-(5-cyclopropyl-1,2,4-oxadiazol-3-yl)phenyl]methyl]-7-[5-(6-fluoro-2-methyl-3-pyridyl)-1,2,4-oxadiazol-3-yl]-1,1-dioxo-2,3-dihydro-1λ^6,5-benzothiazepin-4-one] was tested. Which “Emax proliferation (% activation)” value did it give?
**A.** Its value is 99 % activation.

**Q.** And the EC50?
**A.** The EC50 was 1660 nM.

**Q.** With N[C@H]1CS(=O)(=O)c2ccc(-c3noc(-c4cccnc4C(F)(F)F)n3)cc2N(Cc2ccc(-c3noc(C4CC4)n3)cc2)C1=O [Example 87, (3R)-3-amino-5-[[4-(5-cyclopropyl-1,2,4-oxadiazol-3-yl)phenyl]methyl]-1,1-dioxo-7-[5-[2-(trifluoromethyl)-3-pyridyl]-1,2,4-oxadiazol-3-yl]-2,3-dihydro-1λ^6,5-benzothiazepin-4-one] as the compound, how does the “Emax proliferation (% activation)” value read?
**A.** Its value is 106 % activation.

**Q.** And the EC50?
**A.** Its EC50 is 3620 nM.

**Q.** Which “Emax proliferation (% activation)” value does the source give for CC(C)(C)c1nnc(-c2ccc3c(c2)N(Cc2ccc(-c4nc(C(F)(F)F)co4)cc2)C(=O)[C@@H](N)CS3(=O)=O)o1 [Example 89, (3R)-3-amino-7-(5-tert-butyl-1,3,4-oxadiazol-2-yl)-1,1-dioxo-5-[[4-[4-(trifluoromethyl)oxazol-2-yl]phenyl]methyl]-2,3-dihydro-1λ^6,5-benzothiazepin-4-one] here?
**A.** Its value is 153 % activation.

**Q.** What about the EC50 of the same compound?
**A.** Its EC50 is 203 nM.

**Q.** Which results are given for CC(C)(C)c1nnc(-c2ccc3c(c2)N(Cc2ccc(-n4cnc(C(F)(F)F)n4)cc2)C(=O)[C@@H](N)CS3(=O)=O)o1 [Example 91, (3R)-3-amino-7-(5-tert-butyl-1,3,4-oxadiazol-2-yl)-1,1-dioxo-5-[[4-[3-(trifluoromethyl)-1,2,4-triazol-1-yl]phenyl]methyl]-2,3-dihydro-126,5-benzothiazepin-4-one]?
**A.** Emax proliferation (% activation): 127 % activation; EC50: 404 nM

**Q.** What does the source list for N[C@H]1CS(=O)(=O)c2ccc(-c3nnc(C4(C5CC5)CCCO4)o3)cc2N(Cc2ccc(-c3nnc(C(F)(F)F)o3)cc2)C1=O (stereo partly drawn) [Example 97, (3R)-3-amino-7-[5-(2-cyclopropyltetra-hydrofuran-2-yl)-1,3,4-oxadiazol-2-yl]-1,1-dioxo-5-[[4-[5-(trifluoromethyl)-1,3,4-oxadiazol-2-yl]phenyl]methyl]-2,3-dihydro-1λ6,5-benzothiazepin-4-one]?
**A.** Emax proliferation (% activation): 96 % activation; EC50: 375 nM

**Q.** For CC(c1nc(-c2ccc(CN3C(=O)[C@@H](N)CS(=O)(=O)c4ccc(-c5nnc(C6(N)CCCCC6)o5)cc43)cc2)no1)C(F)(F)F (stereo partly drawn) [Example 98, (3R)-3-amino-7-[5-(1-aminocyclohexyl)-1,3,4-oxadiazol-2-yl]-1,1-dioxo-5-[[4-[5-(2,2,2-trifluoro-1-methyl-ethyl)-1,2,4-oxadiazol-3-yl]phenyl]methyl]-2,3-dihydro-1λ^6,5-benzothiazepin-4-one], which “Emax proliferation (% activation)” value is on record?
**A.** Its value is 97 % activation.

**Q.** What about the EC50 of the same compound?
**A.** The EC50 was 1820 nM.

**Q.** Which “Emax proliferation (% activation)” value does the source give for CC(C)(C#N)c1nnc(-c2ccc3c(c2)N(Cc2ccc(-n4ccc(C(F)(F)F)n4)cc2)C(=O)[C@@H](N)CS3(=O)=O)o1 [Example 121, 2-[5-[(3R)-3-amino-1,1,4-trioxo-5-[[4-[3-(trifluoromethyl)pyrazol-1-yl]phenyl]methyl]-2,3-dihydro-1λ^6,5-benzothiazepin-7-yl]-1,3,4-oxadiazol-2-yl]-2-methyl-propanenitrile] here?
**A.** The value was 160 % activation.

**Q.** And the EC50?
**A.** The EC50 was 1090 nM.

**Q.** What does the source list for CC1(c2nnc(-c3ccc4c(c3)N(Cc3ccc(-c5noc(C(F)(F)F)n5)cc3)C(=O)[C@@H](N)CS4(=O)=O)o2)COC1 [Example 149, (3R)-3-amino-7-[5-(3-methyloxetan-3-yl)-1,3,4-oxadiazol-2-yl]-1,1-dioxo-5-[[4-[5-(trifluoromethyl)-1,2,4-oxadiazol-3-yl]phenyl]methyl]-2,3-dihydro-1λ^6,5-benzothiazepin-4-one]?
**A.** Emax proliferation (% activation): 118 % activation; EC50: 1210 nM

**Q.** CC1(c2nnc(-c3ccc4c(c3)N(Cc3ccc(-c5ccc(C(F)(F)F)cn5)cc3)C(=O)[C@@H](N)CS4(=O)=O)o2)COC1 [Example 150, (3R)-3-amino-7-[5-(3-methyloxetan-3-yl)-1,3,4-oxadiazol-2-yl]-1,1-dioxo-5-[[4-[5-(trifluoromethyl)-2-pyridyl]phenyl]methyl]-2,3-dihydro-1λ^6,5-benzothiazepin-4-one] was tested. Which “Emax proliferation (% activation)” value did it give?
**A.** Its value is 79 % activation.

**Q.** What about the EC50 of the same compound?
**A.** The EC50 was 656 nM.

**Q.** What does the source list for C[C@@](N)(c1nnc(-c2ccc3c(c2)N(Cc2ccc(-n4ccc(C(F)(F)F)n4)cc2)C(=O)[C@@H](N)CS3(=O)=O)o1)C(F)(F)F [Example 157, (3R)-3-amino-7-[5-[(1R)-1-amino-2,2,2-trifluoro-1-methyl-ethyl]-1,3,4-oxadiazol-2-yl]-1,1-dioxo-5-[[4-[3-(trifluoromethyl)pyrazol-1-yl]phenyl]methyl]-2,3-dihydro-1λ^6,5-benzothiazepin-4-one]?
**A.** Emax proliferation (% activation): 130 % activation; EC50: 600 nM

**Q.** With COC(=O)N1CC2CC(c3nnc(-c4ccc5c(c4)N(Cc4ccc(-c6ccc(C(F)(F)F)cn6)cc4)C(=O)[C@@H](N)CS5(=O)=O)o3)(C2)C1 [Example 159, methyl 1-[5-[(3R)-3-amino-1,1,4-trioxo-5-[[4-[5-(trifluoromethyl)-2-pyridyl]phenyl]methyl]-2,3-dihydro-1λ^6,5-benzothiazepin-7-yl]-1,3,4-oxadiazol-2-yl]-3-azabicyclo[3.1.1]heptane-3-carboxylate] as the compound, how does the “Emax proliferation (% activation)” value read?
**A.** The value was 146 % activation.

**Q.** What about the EC50 of the same compound?
**A.** The EC50 was 152 nM.

**Q.** For N[C@H]1CS(=O)(=O)c2ccc(-c3nnc(N4CCC(F)(F)CC4)o3)cc2N(Cc2ccc(-c3nc(C(F)(F)F)no3)cc2)C1=O [Example 161, (3R)-3-amino-7-[5-(4,4-difluoro-1-piperidyl)-1,3,4-oxadiazol-2-yl]-1,1-dioxo-5-[[4-[3-(trifluoromethyl)-1,2,4-oxadiazol-5-yl]phenyl]methyl]-2,3-dihydro-1λ^6,5-benzothiazepin-4-one], which “Emax proliferation (% activation)” value is on record?
**A.** Its value is 178 % activation.

**Q.** What about the EC50 of the same compound?
**A.** Its EC50 is 327 nM.

**Q.** With N#CC1CN(c2nnc(-c3ccc4c(c3)N(Cc3ccc(-c5noc(C(F)(F)F)n5)cc3)C(=O)[C@@H](N)CS4(=O)=O)o2)CCO1 (stereo partly drawn) [Example 163, 4-[5-[(3R)-3-amino-1,1,4-trioxo-5-[[4-[5-(trifluoromethyl)-1,2,4-oxadiazol-3-yl]phenyl]methyl]-2,3-dihydro-1λ^6,5-benzothiazepin-7-yl]-1,3,4-oxadiazol-2-yl]morpholine-2-carbonitrile] as the compound, how does the “Emax proliferation (% activation)” value read?
**A.** The value was 106 % activation.

**Q.** And the EC50?
**A.** The EC50 was 6440 nM.

**Q.** For COCC1CN(c2nnc(-c3ccc4c(c3)N(Cc3ccc(-c5noc(C(F)(F)F)n5)cc3)C(=O)[C@@H](N)CS4(=O)=O)o2)CCO1 (stereo partly drawn) [Example 164, (3R)-3-amino-7-[5-[2-(methoxymethyl)morpholin-4-yl]-1,3,4-oxadiazol-2-yl]-1,1-dioxo-5-[[4-[5-(trifluoromethyl)-1,2,4-oxadiazol-3-yl]phenyl]methyl]-2,3-dihydro-1λ^6,5-benzothiazepin-4-one], which “Emax proliferation (% activation)” value is on record?
**A.** The value was 86 % activation.

**Q.** And the EC50?
**A.** The EC50 was 390 nM.

**Q.** What does the source list for CC(C)(c1nnc(-c2ccc3c(c2)N(Cc2ccc(-c4noc(C(F)(F)F)n4)cc2)C(=O)[C@@H](N)CS3(=O)=O)o1)C(F)(F)F [Example 166]?
**A.** Emax proliferation (% activation): 164 % activation; EC50: 75.9 nM

**Q.** Which “Emax proliferation (% activation)” value does the source give for CC(C)(c1nnc(-c2ccc3c(c2)N(Cc2ccc(-c4noc(C5CC5)n4)cc2)C(=O)[C@@H](N)CS3(=O)=O)o1)C(F)(F)F [Example 167, (3R)-3-amino-5-[[4-(5-cyclopropyl-1,2,4-oxadiazol-3-yl)phenyl]methyl]-1,1-dioxo-7-[5-(2,2,2-trifluoro-1,1-dimethyl-ethyl)-1,3,4-oxadiazol-2-yl]-2,3-dihydro-1λ^6,5-benzothiazepin-4-one] here?
**A.** The value was 186 % activation.

**Q.** What about the EC50 of the same compound?
**A.** Its EC50 is 629 nM.

**Q.** CCC(O)(c1nnc(-c2ccc3c(c2)N(Cc2ccc(-c4noc(C5CC5)n4)cc2)C(=O)[C@@H](N)CS3(=O)=O)o1)C(F)(F)F (stereo partly shown) [Example 169] was tested. Which “Emax proliferation (% activation)” value did it give?
**A.** Its value is 106 % activation.

**Q.** What about the EC50 of the same compound?
**A.** Its EC50 is 833 nM.

**Q.** Which “Emax proliferation (% activation)” value does the source give for CCN1CC(c2nnc(-c3ccc4c(c3)N(Cc3ccc(-c5noc(C(C)(C)C)n5)cc3)C(=O)[C@@H](N)CS4(=O)=O)o2)CC(F)(F)C1 (stereo partly drawn) [Example 181, (3R)-3-amino-5-[[4-(5-tert-butyl-1,2,4-oxadiazol-3-yl)phenyl]methyl]-7-[5-(1-ethyl-5,5-difluoro-3-piperidyl)-1,3,4-oxadiazol-2-yl]-1,1-dioxo-2,3-dihydro-1λ^6,5-benzothiazepin-4-one] here?
**A.** The value was 105 % activation.

**Q.** What about the EC50 of the same compound?
**A.** Its EC50 is 718 nM.

**Q.** Which results are given for COCCN1CC(c2nnc(-c3ccc4c(c3)N(Cc3ccc(-c5noc(C(F)(F)F)n5)cc3)C(=O)[C@@H](N)CS4(=O)=O)o2)CC(F)(F)C1 (stereo partly drawn) [Example 182, (3R)-3-amino-7-[5-[5,5-difluoro-1-(2-methoxyethyl)-3-piperidyl]-1,3,4-oxadiazol-2-yl]-1,1-dioxo-5-[[4-[5-(trifluoromethyl)-1,2,4-oxadiazol-3-yl]phenyl]methyl]-2,3-dihydro-1λ^6,5-benzothiazepin-4-one]?
**A.** Emax proliferation (% activation): 175 % activation; EC50: 1270 nM
